According to patent publication US8324194B2, “Combination therapy for the treatment of cancer” (Incyte Corporation, priority 2005, dated 2012):

What was measured:
[1] = test system: MCF-7 human breast cancer xenografts; experiment: Growth of subcutaneous MCF-7 breast cancer xenograft in mice; assay type: in vivo; details: MCF-7 xenograft; for inhibited tumor cell growth over the control group: nu/nu mice, fulvestrant 5 mg SC once per week for four weeks, mean tumor volume vs control group (a)
Protocol: Human breast cancer cell line MCF-7 was obtained from American Type Tissue Culture Collection (ATCC, Manassas, Va.). Cells were routinely maintained in media recommended by the ATCC with slight modifications. Cells were kept at 37° C. in a humidified incubator supplied with 5% CO2. MCF-7 cells were kept in Eagle's minimal essential medium (ATCC) supplemented with 10% FBS and 0.01 mg/ml bovine insulin.
Animal studies were performed under Animal Welfare Regulation Guidelines in a facility accredited by the Association for the Assessment and Accreditation of Laboratory Animal Care (AAALAC). Balb/c or CD-1 nu/nu mice (Charles River, Wilmington, Mass.) were injected subcutaneously with logarithmically growing cells suspended in either serum free culture media, or a 1:1 mixture media and Matrigel™ (BD Biosciences). The tumor models required implantation (on the same day or one day prior to cell inoculation) of estradiol pellets (17-β estradiol, 0.72 mg/pellet, 60 day release; Innovative Research of American, Sarasota, Fla.). The time in days after injection of the tumor cells into the mice was measured as “days post-inoculation”.
Subcutaneous implantation of osmotic pumps (obtained from Alzet, Cupertino, Calif.) was performed under isofluorane anesthesia following manufacturer's protocol. Subcutaneous pumps (hereinafter “SC pumps”) were used to deliver a solution of Compound 1, or its inert solvent. Fulvestrant, or its inert solvent, was delivered by subcutaneous injection on the dorsal flanks of the animals. Treatment was usually initiated when mean tumor volumes were approximately 150 mm^3 at the beginning of treatment. Ten test animals were included in each treatment group, (a)-(d).
(§1) Tumor size was measured and used to calculate tumor volume for a period of time following the injection of the tumor cells into the mice. Tumor size was measured by using a caliper to measure the length (1) and width (w) of tumors to calculate an approximate volume ((l×w^2)/2). These tumor size measurements and tumor volume calculations were recorded relative to the number of days post-inoculation of the mice with the tumor cells. The frequency of the tumor size measurements varied depending on how quickly the tumors grew in size, with more frequent measurements being taken when the tumors grew quickly. Mean tumor volume was calculated based on the tumor volumes for the ten test animals in each treatment group.
(§2) Treatment group (a) was the control group of test animals. […] Tumor size was measured for each test animal as described above and recorded as a function of the number of days post-inoculation of the mice with the MCF-7 breast cancer cells. Mean tumor volume was then calculated for treatment group (a) and plotted against the number of days post-inoculation as shown in FIG. 1. […]

[2] = test system: BT-474 human breast cancer xenografts; experiment: Growth of subcutaneous BT-474 breast cancer xenograft in mice; assay type: in vivo; details: BT-474 xenograft; for inhibited tumor cell growth over the control group: nu/nu mice, Compound 1 60 mg/kg/day SC pump for 14 days, fulvestrant 5 mg SC once per week for four weeks, mean tumor volume vs control group (a); for tumor growth delay (TGD, T-C) to 500 cubic mm by linear regression analysis of tumor growth rate: Compound 1 60 mg/kg/day for 14 days, fulvestrant 5 mg weekly x4, projected time
Protocol: Human breast cancer cell line BT-474 was obtained from American Type Tissue Culture Collection (ATCC, Manassas, Va.). Cells were routinely maintained in media recommended by the ATCC with slight modifications. Cells were kept at 37° C. in a humidified incubator supplied with 5% CO2. BT-474 cells were grown in RPMI 1640 (Invitrogen) supplemented with 10% fetal bovine serum (FBS), 0.01 mg/ml bovine insulin, 10 mM HEPES and 0.1 mM non-essential amino acids.
Animal studies were performed under Animal Welfare Regulation Guidelines in a facility accredited by the Association for the Assessment and Accreditation of Laboratory Animal Care (AAALAC). Balb/c or CD-1 nu/nu mice (Charles River, Wilmington, Mass.) were injected subcutaneously with logarithmically growing cells suspended in either serum free culture media, or a 1:1 mixture media and Matrigel™ (BD Biosciences). The tumor models required implantation (on the same day or one day prior to cell inoculation) of estradiol pellets (17-βestradiol, 0.72 mg/pellet, 60 day release; Innovative Research of American, Sarasota, Fla.). The time in days after injection of the tumor cells into the mice was measured as “days post-inoculation”.
Subcutaneous implantation of osmotic pumps (obtained from Alzet, Cupertino, Calif.) was performed under isofluorane anesthesia following manufacturer's protocol. Subcutaneous pumps were used to deliver a solution of Compound 1, or its inert solvent. Fulvestrant, or its inert solvent, was delivered by subcutaneous injection on the dorsal flanks of the animals. […] Treatment was usually initiated when mean tumor volumes were approximately 150 mm^3 at the beginning of treatment. Ten test animals were included in each Treatment group, (a)-(d).
as §1, with “(l)” for “(1)”, “The frequency of the tumor size measurements varied depending on how quickly the tumors grew in size, with more frequent measurements being taken when the tumors grew quickly.” left out
as §2, with “BT-474” for “MCF-7”, “2.” for “1.”

[3] = Compound 1 60 mg/kg/day SC pump for 14 days

| Compound | inhibited tumor cell growth over the control group [1, 3] [%] | tumor growth delay (TGD, T-C) to 1000 cubic mm, real, not calculated [1, 3] [days] | inhibited tumor cell growth over the control group [2] [%] | tumor growth delay (TGD, T-C) to 500 cubic mm by linear regression analysis of tumor growth rate [2] [days] | calculated tumor growth delay (TGD, T-C) to 1000 cubic mm by linear regression analysis of tumor growth curves ([1]; fulvestrant 5 mg SC weekly x4, alone or with Compound 1 60 mg/kg/day for 14 days, projected time) [days] |
| --- | --- | --- | --- | --- | --- |
| COC(=O)N1CC2(CC2)C[C@H](C(=O)NO)[C@H]1C(=O)N1CCN(c2ccccc2)CC1 [Compound 1, methyl (6S,7S)-7-[(hydroxyamino)carbonyl]-6-[(4-phenylpiperazin-1-yl)carbonyl]-5-azaspiro[2.5]octane-5-carboxylate] | 46 | 32 | 33 | 19 | – |
| C[C@]12CC[C@@H]3c4ccc(O)cc4C[C@@H](CCCCCCCCC[S+]([O-])CCCC(F)(F)C(F)(F)F)[C@H]3[C@@H]1CC[C@@H]2O (some centres unmarked) [fulvestrant] | 52 | – | 46 | 54 | 63 |
